{"source": "PubChem BioAssay AID1963445", "about": "(Molecular Pharmacology Branch, DTP, NCI, 2024)", "system": "MCF7 complex spheroid growth, % test/control", "test": "Anticancer human tumor MCF7 cell line growth inhibition [Asc];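 further: spheroids exposed to compounds for 7 days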;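 on viability, T/C: 100% = DMSO vehicle control wells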", "conditions": "for viability, T/C: stronger effect = lower value", "summary_of_the_method": "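Stromal components (HUVEC and hMSC) are co-assembled with the cancer cells into multicellular spheroids. Drugs are then added singly or paired, at concentrations falling by half-log increments from a clinically achievable maximum, capped at 10 microM without known Cmax.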", "key": {"[1]": {"conditions": "curve of first compound, second compound 0.0316 µM"}, "[2]": {"conditions": "curve of first compound, second compound 0.1 µM"}, "[3]": {"conditions": "curve of first compound, second compound 0.316 µM"}, "[4]": {"conditions": "curve of first compound, second compound 1 µM"}, "[5]": {"conditions": "curve of first compound, second compound 3.16 µM"}, "[6]": {"conditions": "curve of first compound, second compound 10 µM"}}, "note": "pIC50: −log10 of the molar value. “And” between values parts separate entries of the source, which are not always exact repeats. Equal entries are not always repeated."}
{"compound": "CCN1C(C(=O)NC23CCC(C(=O)O)(CC2)CC3)C(c2cccc(Cl)c2F)C2(C(=O)Nc3cc(Cl)ccc32)C12CCCCC2", "note": "(stereo unspecified) + Cc1c(S(C)(=O)=O)c(-c2cc(F)cc(N3CCN(c4ccc(NS(=O)(=O)c5ccc(NC(CCN6CCC(C(=O)OCCCP(=O)(O)O)CC6)CSc6ccccc6)c(S(=O)(=O)C(F)(F)F)c5)cc4)CC3)c2)c(-c2ccc(Cl)cc2)n1C(C)C", "values": [{"measurement": "pIC50", "setting": "[1]", "result": 6.87}, {"measurement": "pIC50", "setting": "[2]", "result": 6.96}, {"measurement": "pIC50", "setting": "[3]", "result": 7.05}, {"measurement": "pIC50", "setting": "[4]", "result": 7.09}, {"measurement": "pIC50", "setting": "[5]", "result": 7.22}, {"measurement": "pIC50", "setting": "[6]", "result": 7.13}, {"measurement": "viability, T/C", "setting": "second compound 0.0316 µM, first compound 0.00949 µM", "result": 96.9, "unit": "%"}, {"measurement": "viability, T/C", "setting": "second compound 0.0316 µM, first compound 0.03 µM", "result": 97.5, "unit": "%"}, {"measurement": "viability, T/C", "setting": "second compound 0.0316 µM, first compound 0.0949 µM", "result": 48.9, "unit": "%"}, {"measurement": "viability, T/C", "setting": "second compound 0.0316 µM, first compound 0.3 µM", "result": 38.3, "unit": "%"}, {"measurement": "viability, T/C", "setting": "second compound 0.0316 µM, first compound 0.949 µM", "result": 22.7, "unit": "%"}, {"measurement": "viability, T/C", "setting": "second compound 0.0316 µM, first compound 3 µM", "result": 12.1, "unit": "%"}, {"measurement": "viability, T/C", "setting": "second compound 0.1 µM, first compound 0.00949 µM", "result": 108, "unit": "%"}, {"measurement": "viability, T/C", "setting": "second compound 0.1 µM, first compound 0.03 µM", "result": 93.7, "unit": "%"}, {"measurement": "viability, T/C", "setting": "second compound 0.1 µM, first compound 0.0949 µM", "result": 46, "unit": "%"}, {"measurement": "viability, T/C", "setting": "second compound 0.1 µM, first compound 0.3 µM", "result": 34.5, "unit": "%"}, {"measurement": "viability, T/C", "setting": "second compound 0.1 µM, first compound 0.949 µM", "result": 15.2, "unit": "%"}, {"measurement": "viability, T/C", "setting": "second compound 0.1 µM, first compound 3 µM", "result": 11.4, "unit": "%"}, {"measurement": "viability, T/C", "setting": "second compound 0.316 µM, first compound 0.00949 µM", "result": 95.2, "unit": "%"}, {"measurement": "viability, T/C", "setting": "second compound 0.316 µM, first compound 0.03 µM", "result": 79.6, "unit": "%"}, {"measurement": "viability, T/C", "setting": "second compound 0.316 µM, first compound 0.0949 µM", "result": 45, "unit": "%"}, {"measurement": "viability, T/C", "setting": "second compound 0.316 µM, first compound 0.3 µM", "result": 28.9, "unit": "%"}, {"measurement": "viability, T/C", "setting": "second compound 0.316 µM, first compound 0.949 µM", "result": 15, "unit": "%"}, {"measurement": "viability, T/C", "setting": "second compound 0.316 µM, first compound 3 µM", "result": 9.79, "unit": "%"}, {"measurement": "viability, T/C", "setting": "second compound 1 µM, first compound 0.00949 µM", "result": 91.9, "unit": "%"}, {"measurement": "viability, T/C", "setting": "second compound 1 µM, first compound 0.03 µM", "result": 74.4, "unit": "%"}, {"measurement": "viability, T/C", "setting": "second compound 1 µM, first compound 0.0949 µM", "result": 42.5, "unit": "%"}, {"measurement": "viability, T/C", "setting": "second compound 1 µM, first compound 0.3 µM", "result": 33.4, "unit": "%"}, {"measurement": "viability, T/C", "setting": "second compound 1 µM, first compound 0.949 µM", "result": 11.6, "unit": "%"}, {"measurement": "viability, T/C", "setting": "second compound 1 µM, first compound 3 µM", "result": 14.9, "unit": "%"}, {"measurement": "viability, T/C", "setting": "second compound 3.16 µM, first compound 0.00949 µM", "result": 97.9, "unit": "%"}, {"measurement": "viability, T/C", "setting": "second compound 3.16 µM, first compound 0.03 µM", "result": 63.8, "unit": "%"}, {"measurement": "viability, T/C", "setting": "second compound 3.16 µM, first compound 0.0949 µM", "result": 44.2, "unit": "%"}, {"measurement": "viability, T/C", "setting": "second compound 3.16 µM, first compound 0.3 µM", "result": 18.8, "unit": "%"}, {"measurement": "viability, T/C", "setting": "second compound 3.16 µM, first compound 0.949 µM", "result": 12.1, "unit": "%"}, {"measurement": "viability, T/C", "setting": "second compound 3.16 µM, first compound 3 µM", "result": 11.5, "unit": "%"}, {"measurement": "viability, T/C", "setting": "second compound 10 µM, first compound 0.00949 µM", "result": 188, "unit": "%"}, {"measurement": "viability, T/C", "setting": "second compound 10 µM, first compound 0.03 µM", "result": 153, "unit": "%"}, {"measurement": "viability, T/C", "setting": "second compound 10 µM, first compound 0.0949 µM", "result": 30.6, "unit": "%"}, {"measurement": "viability, T/C", "setting": "second compound 10 µM, first compound 0.3 µM", "result": 27.4, "unit": "%"}, {"measurement": "viability, T/C", "setting": "second compound 10 µM, first compound 0.949 µM", "result": 12.2, "unit": "%"}, {"measurement": "viability, T/C", "setting": "second compound 10 µM, first compound 3 µM", "result": 12.3, "unit": "%"}]}
{"compound": "CCN1C(C(=O)NC23CCC(C(=O)O)(CC2)CC3)C(c2cccc(Cl)c2F)C2(C(=O)Nc3cc(Cl)ccc32)C12CCCCC2", "note": "(stereo unspecified)", "values": [{"measurement": "viability, T/C", "setting": "compound 0.00949 µM", "result": "102% [middle of 9 runs]"}, {"measurement": "viability, T/C", "setting": "compound 0.0949 µM", "result": "48.1% [middle of 9 runs]"}, {"measurement": "viability, T/C", "setting": "compound 0.3 µM", "result": "33.8% [middle of 9 runs]"}, {"measurement": "viability, T/C", "setting": "compound 0.949 µM", "result": "23.2% [middle of 9 runs]"}, {"measurement": "viability, T/C", "setting": "compound 3 µM", "result": "15.6% [middle of 9 runs]"}, {"measurement": "IC50", "setting": "compound alone, run of 11/07/2022", "result": "94.5 nM [middle of 7 runs]"}, {"measurement": "pIC50", "setting": "curve of compound", "result": "7.15 and 6.97"}]}
{"compound": "C=C(F)C(=O)N1CCN(c2nc(OCC3CCCN3C)nc3c2CCN(c2cccc4cccc(Cl)c24)C3)CC1CC#N", "note": "(stereo unspecified) + Cc1c(S(C)(=O)=O)c(-c2cc(F)cc(N3CCN(c4ccc(NS(=O)(=O)c5ccc(NC(CCN6CCC(C(=O)OCCCP(=O)(O)O)CC6)CSc6ccccc6)c(S(=O)(=O)C(F)(F)F)c5)cc4)CC3)c2)c(-c2ccc(Cl)cc2)n1C(C)C", "values": [{"measurement": "pIC50", "setting": "[1]", "result": 5.46}, {"measurement": "pIC50", "setting": "[2]", "result": 5.34}, {"measurement": "pIC50", "setting": "[3]", "result": 5.52}, {"measurement": "pIC50", "setting": "[4]", "result": 5.41}, {"measurement": "pIC50", "setting": "[5]", "result": 5.48}, {"measurement": "pIC50", "setting": "[6]", "result": 5.37}, {"measurement": "viability, T/C", "setting": "second compound 0.0316 µM, first compound 0.0316 µM", "result": 105, "unit": "%"}, {"measurement": "viability, T/C", "setting": "second compound 0.0316 µM, first compound 0.1 µM", "result": 108, "unit": "%"}, {"measurement": "viability, T/C", "setting": "second compound 0.0316 µM, first compound 0.316 µM", "result": 87.6, "unit": "%"}, {"measurement": "viability, T/C", "setting": "second compound 0.0316 µM, first compound 1 µM", "result": 75.2, "unit": "%"}, {"measurement": "viability, T/C", "setting": "second compound 0.0316 µM, first compound 3.16 µM", "result": 60.7, "unit": "%"}, {"measurement": "viability, T/C", "setting": "second compound 0.0316 µM, first compound 10 µM", "result": 0.25, "unit": "%"}, {"measurement": "viability, T/C", "setting": "second compound 0.1 µM, first compound 0.0316 µM", "result": 107, "unit": "%"}, {"measurement": "viability, T/C", "setting": "second compound 0.1 µM, first compound 0.1 µM", "result": 90.5, "unit": "%"}, {"measurement": "viability, T/C", "setting": "second compound 0.1 µM, first compound 0.316 µM", "result": 97.3, "unit": "%"}, {"measurement": "viability, T/C", "setting": "second compound 0.1 µM, first compound 1 µM", "result": 95.8, "unit": "%"}, {"measurement": "viability, T/C", "setting": "second compound 0.1 µM, first compound 3.16 µM", "result": 72.7, "unit": "%"}, {"measurement": "viability, T/C", "setting": "second compound 0.1 µM, first compound 10 µM", "result": 0.14, "unit": "%"}, {"measurement": "viability, T/C", "setting": "second compound 0.316 µM, first compound 0.0316 µM", "result": 103, "unit": "%"}, {"measurement": "viability, T/C", "setting": "second compound 0.316 µM, first compound 0.1 µM", "result": 88.8, "unit": "%"}, {"measurement": "viability, T/C", "setting": "second compound 0.316 µM, first compound 0.316 µM", "result": 86.8, "unit": "%"}, {"measurement": "viability, T/C", "setting": "second compound 0.316 µM, first compound 1 µM", "result": 87, "unit": "%"}, {"measurement": "viability, T/C", "setting": "second compound 0.316 µM, first compound 3.16 µM", "result": 48, "unit": "%"}, {"measurement": "viability, T/C", "setting": "second compound 0.316 µM, first compound 10 µM", "result": 0.13, "unit": "%"}, {"measurement": "viability, T/C", "setting": "second compound 1 µM, first compound 0.0316 µM", "result": 96.3, "unit": "%"}, {"measurement": "viability, T/C", "setting": "second compound 1 µM, first compound 0.1 µM", "result": 82.6, "unit": "%"}, {"measurement": "viability, T/C", "setting": "second compound 1 µM, first compound 0.316 µM", "result": 87.1, "unit": "%"}, {"measurement": "viability, T/C", "setting": "second compound 1 µM, first compound 1 µM", "result": 81.5, "unit": "%"}, {"measurement": "viability, T/C", "setting": "second compound 1 µM, first compound 3.16 µM", "result": 61.8, "unit": "%"}, {"measurement": "viability, T/C", "setting": "second compound 1 µM, first compound 10 µM", "result": 0.17, "unit": "%"}, {"measurement": "viability, T/C", "setting": "second compound 3.16 µM, first compound 0.0316 µM", "result": 97.9, "unit": "%"}, {"measurement": "viability, T/C", "setting": "second compound 3.16 µM, first compound 0.1 µM", "result": 86, "unit": "%"}, {"measurement": "viability, T/C", "setting": "second compound 3.16 µM, first compound 0.316 µM", "result": 84.2, "unit": "%"}, {"measurement": "viability, T/C", "setting": "second compound 3.16 µM, first compound 1 µM", "result": 81.7, "unit": "%"}, {"measurement": "viability, T/C", "setting": "second compound 3.16 µM, first compound 3.16 µM", "result": 50.8, "unit": "%"}, {"measurement": "viability, T/C", "setting": "second compound 3.16 µM, first compound 10 µM", "result": 0.17, "unit": "%"}, {"measurement": "viability, T/C", "setting": "second compound 10 µM, first compound 0.0316 µM", "result": 200, "unit": "%"}, {"measurement": "viability, T/C", "setting": "second compound 10 µM, first compound 0.1 µM", "result": 167, "unit": "%"}, {"measurement": "viability, T/C", "setting": "second compound 10 µM, first compound 0.316 µM", "result": 231, "unit": "%"}, {"measurement": "viability, T/C", "setting": "second compound 10 µM, first compound 1 µM", "result": 223, "unit": "%"}, {"measurement": "viability, T/C", "setting": "second compound 10 µM, first compound 3.16 µM", "result": 66.7, "unit": "%"}, {"measurement": "viability, T/C", "setting": "second compound 10 µM, first compound 10 µM", "result": 0.3, "unit": "%"}]}
